Patent US20260137662A1, “CD11B AGONISTS FOR TREATMENT OF AUTOIMMUNE DISEASE” (Rush University Medical Center, priority 2022, published 2026)
Entries after “also recorded” stand apart in the source; their conditions may differ.

What was measured:
TLR4 mediated pathways = test: Relative gene expression in myeloid cells stimulated with LPS; format: cell-based; conditions: LPS (50ng/ml) and LA1 (20 uM) co-treatment, 4 hour
Method: FIG. 4A illustrates the relative gene expression of biomarker IL-1bin myeloid cells after 4 hour of treatment with vehicle DMSO (UT), LA1 (20 uM), LPS (50ng/ml), or LPS and LA1 co-treatment.
FIG. 4B illustrates the relative gene expression of biomarker IL-18 in myeloid cells after 4 hour of treatment with vehicle DMSO (UT), LA1 (20 uM), LPS (50ng/ml), or LPS and LA1 co-treatment.
FIG. 4C illustrates the relative gene expression of biomarker uPAR in myeloid cells after 4 hour of treatment with vehicle DMSO (UT), LA1 (20 uM), LPS (50ng/ml), or LPS and LA1 co-treatment.
FIG. 4D illustrates the relative gene expression of biomarker IL-6 in myeloid cells after 4 hour of treatment with vehicle DMSO (UT), LA1 (20 uM), LPS (50ng/ml), or LPS and LA1 co-treatment.
The impact of CD11b activation by LA1 on TLR4 mediated pathways was similarly assessed by stimulating myeloid cells with LPS, a known TLR4 stimulant, and co-treating with LA1.

[1] = tested on: humanized mouse model of SLE (SLE-NSG mice); test: Humanized SLE mouse model (NSG mice engrafted with SLE patient PBMCs); format: in vivo
Method: NSG mice engrafted with healthy control or SLE PBMCs were subsequently treated with LA1 or vehicle and human dsDNA levels were measured after 4 weeks of treatment. Each dot represents a unique sample. Bars show mean +/−SEM (n=3-6).
NSG mice engrafted with healthy control or SLE PBMCs were subsequently treated with LA1 or vehicle and suPAR levels were measured after 4 weeks of treatment. Each dot represents a unique sample. Bars show mean +/−SEM (n=3-6). […]
NSG mice engrafted with healthy control or SLE PBMCs were subsequently treated with LA1 or vehicle and ACR was measured after 4 weeks of treatment. Each dot represents a unique sample. Bars show mean +/−SEM (n=3-6).
FIG. 14A illustrates alopecia in control mouse models (Ctrl), mice engrafted with heathy PBMCs (HC), humanized SLE models treated with vehicle (Veh), and humanized SLE models treated with LA1. […]
The efficacy of CD11b agonist LA1 as a therapeutic was studied using a generated humanized mouse model of SLE. To generate the humanized SLE model, immunocompromised NSG mice engrafted with peripheral blood mononuclear cells (PBMCs) from either SLE patients or from healthy human donors (control). 2.5×10^6 purified PBMCs were injected intravenously into NSG mice on day 0. The humanized mice were monitored daily for significant clinical signs of SLE (alopecia, skin lesions, weight loss & arthritis), morbidity and mortality. Body weights were recorded weekly and skin lesions were photographed and scored weekly.
A small sample of peripheral blood was drawn from the mice under general anesthesia 2, 4 and 6 wks post-humanization by penetrating the retro-orbital sinus in mice with a sterile Pasteur pipette. The blood sample was split for fluorescence-activated cell sorting (FACS) analysis and serum preparation. […] For serum, the whole blood was clotted at room temperature for 30 minutes, followed by a 10-minute centrifugation at 10,000 RPM. The red blood cell-free serum was transferred into micro-centrifuge tubes and stored at −80° C. until further analysis. Additionally, urine samples were collected weekly, transferred into a micro-centrifuge tube and stored at −80° for future analysis. Urine protein was measured using a sandwich ELISA specific for mouse albumin (Bethyl Laboratories, TX) and urinary creatinine was determined using the Creatinine Companion kit (Exocell, PA) according to manufacturer's protocol.
To test the efficacy of LA1 on humanized SLE mouse models, the generated SLE-NSG mice were treated with LA1 (2 mg/kg i.p. daily) starting at two weeks post administration of PBMCs and until experiment completion. Concentrations of human dsDNA, mouse suPAR, and IFNb were measured in NSG mice, NSG mice engrafted with PBMCs from a healthy donor, untreated SLE-NSG mice, SLE-NSG mice treated with a vehicle, and SLE-NSG mice treated with LA1.

TLR7 mediated pathways = test: Relative gene expression (RT-PCR) in myeloid cells stimulated with imiquimod; format: cell-based; conditions: IMQ (20 ug/mL) and LA1 (20 uM) co-treatment, 4 hours
Method: FIG. 3A illustrates transcriptional levels of biomarker IL-1b in myeloid cells after 4 hours of treatment with vehicle DMSO (UT), LA1 (20 uM), imiquimod (IMQ) (20 ug/mL), or IMQ and LA1 co-treatment. Bars show mean with SD (N=3) (*P<0.05, **P<0.01, ***P<0.001, ***P<0.0001).
FIG. 3B illustrates transcriptional levels of biomarker uPAR in myeloid cells after 4 hours of treatment with vehicle DMSO (UT), LA1 (20 uM), imiquimod (IMQ) (20 ug/mL), or IMQ and LA1 co-treatment. Bars show mean with SD (N=3) (*P<0.05, **P<0.01, ***P<0.001, ***P<0.0001).
FIG. 3C illustrates transcriptional levels of biomarker IL-6 in myeloid cells after 4 hours of treatment with vehicle DMSO (UT), LA1 (20 uM), imiquimod (IMQ) (20 ug/mL), or IMQ and LA1 co-treatment. Bars show mean with SD (N=3) (*P<0.05, **P<0.01, ***P<0.001, ***P<0.0001).
FIG. 3D illustrates transcriptional levels of biomarker NLRP3 in myeloid cells after 4 hours of treatment with vehicle DMSO (UT), LA1 (20 uM), imiquimod (IMQ) (20 ug/mL), or IMQ and LA1 co-treatment. Bars show mean with SD (N=3) (*P<0.05, **P<0.01, ***P<0.001, ***P<0.0001).
The impact of CD11b activation by LA1 on TLR7 mediated pathways was assessed by treating myeloid cells with imiquimod (IMQ), a known TLR7 stimulant, and co-treating myeloid cells with IMQ and LA1. Relative gene expression of various biomarkers was assessed by RT-PCR.

[2] = LA1 2 mg/kg i.p. daily from two weeks post PBMCs, after 4 weeks of treatment, vs vehicle, 2 mg/kg
[3] = humanized SLE mice treated with LA1 vs vehicle

In the case of `O=C(O)c1ccc(-c2ccc(/C=C3\SC(=S)N(Cc4ccccc4)C3=O)o2)cc1` [LA1, (Z)-4-(5-((3-benzyl-4-oxo-2-thioxothiazolidin-5-ylidene)methyl)furan-2-yl)benzoic acid], the “expression of biomarker IL-1b” value (TLR4 mediated pathways) was “significantly decreased”, the “expression of biomarker IL-6” value (TLR4 mediated pathways) was “significantly decreased” and the “expression of biomarker IL-18” value (TLR4 mediated pathways) was “significantly decreased”. For the same molecule, the “expression of biomarker uPAR” value (TLR4 mediated pathways) was “significantly decreased”, the “concentration of IFNb in the serum” value [1, 2] was “significantly reduced; also recorded: reduction” and the “concentration of anti-double stranded DNA antibodies (human dsDNA) in the serum” value [1, 2] was “significantly reduced; also recorded: reduction”. For the same molecule, the “concentration of suPAR in the serum” value [1, 2] was “significantly reduced; also recorded: reduction”, the “urinary albumin creatinine ratios (ACR)” value [1, 2] was “significantly reduced; also recorded: reduction” and the “alopecia (nose area)” value [1, 3] was “significantly reduced; also recorded: reduces alopecia”. For the same molecule, the “number of GR1-positive, CD11b-positive cells in spleens” value [1, 3] was “reduction in number”, the “number of neutrophils infiltrating in the kidney (H&E staining)” value [1, 3] was “reduction in number” and the “TLR7-dependent increase in IL-1b expression level” value (TLR7 mediated pathways) was “significantly reduced”. The “TLR7-dependent increase in IL-6 expression level” value (TLR7 mediated pathways) was “significantly reduced”, the “TLR7-dependent increase in NLRP3 expression level” value (TLR7 mediated pathways) was “significantly reduced” and the “TLR7-dependent increase in uPAR expression level” value (TLR7 mediated pathways) was “significantly reduced”.
